Experiments:
Gram Positive bacteria = test: Surface Antimicrobial Kill Testing, normalized to triclosan internal standard, gram positive; format: cell-based, S. aureus (Sa); conditions: for antimicrobial benefit in words, gram-positive: Table 2B formulas
Protocol: (§1) Inoculum is prepared by streaking microorganism onto a Tryptic Soy Agar (TSA) plate and incubating for 24 h at 33° C. Plated bacteria is resuspended in saline until the transmittance percentage falls within the accepted range for ˜10^8 cfu/mL. For K. pneumonia (Kp) and P. aeruginosa (Pa), this is 31.00-33.00% T. For S. aureus (Sa) this is 23.00-25.00% T. A 10× concentration is made by spinning down the prepared inoculum, removing the supernatant saline from the bacterial pellet, then resuspending the pellet in 1/10th of the original volume of saline. The final inoculum is prepared with 5% of “soil” in the form of Fetal Bovine Serum (FBS). A 18×18 mm sterile glass coverslip is placed into an appropriate container (e.g., petri dish). 20 μL of prepared inoculum is added to the glass coverslip. Inoculum is then air-dried for 30 minutes in a 36° C. incubator. After drying, 40 μL of test sample is added on top of the dried inoculum. This is incubated at room temperature for the desired contact time. 5 mL of neutralizing media (Modified Letheen Broth+Tween+Lecithin (MLBTL)) is added to the coverslip and shaken on an orbital shaker for 5 minutes to ensure proper neutralization and extraction. Viability is then assessed of the neutralized and extracted sample by traditional/alternative microbiological techniques. The normalized antimicrobial activity reported in the performance examples below was generated from detection time data obtained as described in the Surface Antimicrobial Kill Test Method. To account for day-to-day variability an internal standard was tested with each series. The internal standard was a composition of 0.25 wt % Triclosan, Sigma Aldrich (St. Louis, MO, USA; CAS #3380-34-5, 97.0-103.0% (active substance, GC)), 50 wt % DMSO, and 49.75 wt % H2O, with a final solution pH of 7.7. Normalized activity is reported following the equation 1 below. Normalized Activity=(αΔDT−βΔDT)/(γΔDT−βΔDT) equation 1. where, αΔDT is the average detection time of the antimicrobial compound, and γΔDT is the average detection time of the reference triclosan internal standard, and βΔDT is the average detection time of the background unperturbed bacteria. Modified amino acids of the present disclosure were tested as aqueous solutions in the Surface Antimicrobial Kill Testing Method above. To prepare test solutions modified amino acids were first dissolved in the appropriate solvent. Second the selected surfactant is added to the mixture. After vortex (1 min, Vortex-2 Genie, vortex speed 8) mixing, the samples were then diluted with ½ portion of reverse osmosis water (RO water, Millipore Direct-Q™, pH 6). The aqueous solution was then vortexed (1 min, Vortex-2 Genie, vortex speed 8), to which the second ½ portion of water is added. The pH of the solution was then adjusted to the target pH using either 1N HCl, Glacial Acetic Acid, or 1N NaOH. The final solution was then vortexed (1 min, Vortex-2 Genie, vortex speed 8). An example batch sheet is provided below in Table 1. In Performance Examples 1-5 below, formulations comprising solvent, surfactant, and antimicrobial agents according to the present disclosure (e.g., based on modified amino acid amides), are evaluated via microbial surface kill tests according to the Surface Antimicrobial Kill Testing Method provided above. After treatment, microbial growth is referenced and reported to a triclosan sample and unaltered microbes according to the Normalization of Antimicrobial Activity provided above.

Gram Negative bacteria = test: Surface Antimicrobial Kill Testing, normalized to triclosan internal standard, gram negative; format: cell-based, K. pneumonia (Kp) / P. aeruginosa (Pa); conditions: for antimicrobial benefit in words, gram-negative: Table 2B formulas
Protocol: as §1

[1] = Table 2B, compound 0.5 wt %, DPGME 5 wt %, Surfonic L24-9 1 wt %, 0.1M Acetic acid buffer pH 4.5
[2] = Table 3B, compound 0.5 wt %, DPGME 5 wt %, Surfonic L24-9 1 wt %, 0.1M Acetic acid buffer pH 4.5
[3] = 0.5 wt %, 5 wt % DPGME, water, pH 4.5, EH6 1 wt %
[4] = 0.5 wt %, 5 wt % DPGME, water, pH 4.5, Miranol Ultra 1 wt %
[5] = 0.5 wt %, 5 wt % DPGME, water, pH 4.5, Plantaren 2000 1 wt %
[6] = 0.5 wt %, 5 wt % DPGME, water, pH 4.5, Surfonic L24-9 1 wt %
[7] = 0.5 wt %, 5 wt % DPGME, water, pH 4.5, Tween 80 1 wt %
[8] = 0.5 wt %, 5 wt % DPGME, water, pH 9, Miranol Ultra 1 wt %
[9] = 0.5 wt %, 5 wt % DPGME, water, pH 9, SLS 1 wt %
[10] = 0.5 wt %, 5 wt % DPGME, water, pH 9, Surfonic L24-9 1 wt %
[11] = Table 4, variety of surfactants

CN(C)C(=O)[C@H](N)Cc1ccccc1 [Comparative Example C1, reference compound]
antimicrobial benefit in words, gram-positive (Gram Positive bacteria): fail to show any meaningful benefit
Gram Positive Referenced Microbial Activity (Gram Positive bacteria; [1]): 0.1
antimicrobial benefit in words, gram-negative (Gram Negative bacteria): fail to show any meaningful benefit
Gram Negative Referenced Microbial Activity (Gram Negative bacteria; [1]): 0.2

CCCCCCNC(=O)[C@@H](N)Cc1c[nH]c2ccccc12 [Synthetic Example 1]
Gram Positive Referenced Microbial Activity (Gram Positive bacteria; [2]): 0.3
Gram Negative Referenced Microbial Activity (Gram Negative bacteria; [2]): 2.2

CCCCCCCCNC(=O)[C@@H](N)Cc1c[nH]c2ccccc12 [Synthetic Example 2]
Gram Positive Referenced Microbial Activity (Gram Positive bacteria; [3]): 1.6
Gram Positive Referenced Microbial Activity (Gram Positive bacteria; [4]): 0.7
Gram Positive Referenced Microbial Activity (Gram Positive bacteria; [5]): 1.3
Gram Positive Referenced Microbial Activity (Gram Positive bacteria; [6]): 1.0
Gram Positive Referenced Microbial Activity (Gram Positive bacteria; [7]): 1.2
Gram Positive Referenced Microbial Activity (Gram Positive bacteria; [8]): 0.2
Gram Positive Referenced Microbial Activity (Gram Positive bacteria; [9]): 0.2
Gram Positive Referenced Microbial Activity (Gram Positive bacteria; [10]): 0.2
Gram Positive Referenced Microbial Activity (Gram Positive bacteria; [2]): 1.0
antimicrobial efficacy in words, gram-positive (Gram Positive bacteria; [11]): shows antimicrobial efficacy
Gram Positive Referenced Microbial Activity (Gram Positive bacteria; compound 0.5 wt %, Surfonic L 24-9 1 wt %, 5 wt % DPGME, water, pH 4.5, aged 14 days): 1.1
Gram Positive Referenced Microbial Activity (Gram Positive bacteria; compound 0.5 wt %, Surfonic L 24-9 1 wt %, 5 wt % DPGME, water, pH 4.5, not aged): 1.0
Gram Negative Referenced Microbial Activity (Gram Negative bacteria; [3]): ≥4.9
Gram Negative Referenced Microbial Activity (Gram Negative bacteria; [4]): ≥4.9
Gram Negative Referenced Microbial Activity (Gram Negative bacteria; [5]): ≥4.9
Gram Negative Referenced Microbial Activity (Gram Negative bacteria; [6]): 2.5
Gram Negative Referenced Microbial Activity (Gram Negative bacteria; [7]): ≥4.9
Gram Negative Referenced Microbial Activity (Gram Negative bacteria; [8]): 0.1
Gram Negative Referenced Microbial Activity (Gram Negative bacteria; [9]): 0.0
Gram Negative Referenced Microbial Activity (Gram Negative bacteria; [10]): 0.7
Gram Negative Referenced Microbial Activity (Gram Negative bacteria; [2]): 2.5
pH cutoff of antimicrobial efficacy (Gram Negative bacteria; Table 4, gram negative and gram positive): cutoff at pH 9
antimicrobial efficacy in words, gram-negative (Gram Negative bacteria; [11]): shows antimicrobial efficacy

CCCCCCCCCNC(=O)[C@@H](N)Cc1c[nH]c2ccccc12 [Synthetic Example 3]
Gram Positive Referenced Microbial Activity (Gram Positive bacteria; [2]): 0.3
Gram Negative Referenced Microbial Activity (Gram Negative bacteria; [2]): 2.2

CCCCCCCCNC(=O)[C@@H](N)Cc1ccccc1 [Synthetic Example 5]
antimicrobial benefit in words, gram-positive (Gram Positive bacteria): shows improvement against gram-negative and gram-positive bacteria
Gram Positive Referenced Microbial Activity (Gram Positive bacteria; [1]): 0.7
antimicrobial benefit in words, gram-negative (Gram Negative bacteria): demonstrate meaningful gram-negative activity
Gram Negative Referenced Microbial Activity (Gram Negative bacteria; [1]): ≥3.9

CCN(C(=O)C(N)Cc1ccccc1)C1CCCCC1 (stereo not drawn) [Synthetic Example 6]
Gram Positive Referenced Microbial Activity (Gram Positive bacteria; [1]): 0.2
antimicrobial benefit in words, gram-negative (Gram Negative bacteria): demonstrate meaningful gram-negative activity
Gram Negative Referenced Microbial Activity (Gram Negative bacteria; [1]): 2.7

CCCCCCCCCCCCNC(=O)[C@@H](N)Cc1ccccc1 [Synthetic Example 7]
antimicrobial benefit in words, gram-positive (Gram Positive bacteria): fail to show any meaningful benefit
Gram Positive Referenced Microbial Activity (Gram Positive bacteria; [1]): 0.1
antimicrobial benefit in words, gram-negative (Gram Negative bacteria): fail to show any meaningful benefit
Gram Negative Referenced Microbial Activity (Gram Negative bacteria; [1]): 0.1
